According to patent US12263139B2, “Use of cannabidiol in the treatment of tuberous sclerosis complex” (Jazz Pharmaceuticals Research UK Limited, priority 2017, dated 2025):

Experiments:
AML 621-101 cells [1] = assay: Wound healing assay in AML cells; format: cell-based
Method: (§1) (i) Angiomyolipomas (AML) cells derived from a Tuberous Sclerosis Complex patient (621-101 cell-line), with a known loss of function of TSC2. […] Zeocin™ was purchased from LifeTechnologies (cat no: R25001) and was used to originally generate the stable cell line (by Prof. Lisa Henske) over two weeks of Zeocin™ selection and then for continued maintenance of the cells in tissue culture (at 100 μg/ml).
(§2) Tsc2−/− and Tsc2+/+ cell lines were cultured and maintained in DMEM supplemented with 10% (v/v) FBS and 1% (v/v) penicillin-streptomycin in a humidified incubator (5% CO2 at 37° C.). The AML −/− cell lines were cultured and maintained in DMEM supplemented with 15% (v/v) FBS and 1% (v/v) penicillin-streptomycin in a humidified incubator (5% CO2 at 37° C.). For hypoxia, cells were put into a Binder CB150 hypoxic chamber set at 1% 02 for the indicated time points
The stock concentration of CBD was made to 20 mM in dimethyl sulfoxide (DMSO). […] The final concentration of the DMSO in the cell culture medium was at a maximum level of 0.05% (v/v).
Cells were seeded in 60 mm plates and left to reach 100% confluency. Cells were then synchronised in 1% (v/v) FBS DMEM for 24 h and “wounded” with a pipette tip. Dead cells were removed with PBS wash and then subsequently replaced with DMEM (10% (v/v) FBS). […]

Tsc2−/− MEFs [2] = assay: Transwell cell migration assay in Tsc2−/− MEFs; format: cell-based, mouse; conditions: Tsc2+/+ as control cell; reduction not significant; FIG. 2 (A)
Method: (§3) (ii) Tsc2−/− p53−/− and Tsc2+/+p53−/− mouse embryonic fibroblast (MEF) cell lines (now referred to as Tsc2−/− and Tsc2+/+, respectively).
as §2
(§4) The stock concentration of CBD was made to 20 mM in dimethyl sulfoxide (DMSO). CBD was added to culture media to final concentrations of either 5 μM or 10 μM, as indicated). The final concentration of the DMSO in the cell culture medium was at a maximum level of 0.05% (v/v).
Transwell permeable supports with 6.5 mm diameter inserts, 8.0 μm pore size, and a polycarbonate membrane were used to perform migration assays. Cells were grown in a 75-cm2 flask with standard medium (10% (v/v) FBS) until confluent. […] Cells were counted using a haemocytometer. […] The percentage of adherent cells was then determined by fixing the cells with methanol and acetone (1:1) for 20 minutes at 20° C. […] Crystal Violet stained cells were eluted with 1% (w/v) SDS and the absorbance was read at 550 nm on a Genova MK3 Lifescience.

Tsc2−/− MEFs [3] = assay: Matrigel cell invasion assay in Tsc2−/− MEFs; format: cell-based, mouse
Method: as §3, §2, §4
Transwell permeable supports with 6.5 mm diameter inserts, 8.0 μm pore size, and a polycarbonate membrane were used to perform migration assays. Cells were grown in a 75-cm2 flask with standard medium (10% (v/v) FBS) until confluent. […] Cells were counted using a haemocytometer. […] The percentage of adherent cells was then determined by fixing the cells with methanol and acetone (1:1) for 20 minutes at 20° C. […] Crystal Violet stained cells were eluted with 1% (w/v) SDS and the absorbance was read at 550 nm on a Genova MK3 Lifescience. […]

AML 621-101 cells [4] = assay: Matrigel cell invasion assay in AML 621-101 cells; format: cell-based; conditions: CBD at both 5 μM and 10 μM
Method: as §1
Tsc2−/− and Tsc2+/+ cell lines were cultured and maintained in DMEM supplemented with 10% (v/v) FBS and 1% (v/v) penicillin-streptomycin in a humidified incubator (5% CO2 at 37° C.). […]
Transwell permeable supports with 6.5 mm diameter inserts, 8.0 μm pore size, and a polycarbonate membrane were used to perform migration assays. […] Cells were counted using a haemocytometer. […] The percentage of adherent cells was then determined by fixing the cells with methanol and acetone (1:1) for 20 minutes at 20° C. […] Crystal Violet stained cells were eluted with 1% (w/v) SDS and the absorbance was read at 550 nm on a Genova MK3 Lifescience.
For invasion assays, a similar protocol was used; however, the top chamber of the Transwell was filled with […] of BD Matrigel Basement Membrane Matrix (1 mg/mL). […] The number of invaded cells was determined by fixation staining and elution of crystal violet with 1% (w/v) SDS, as before.

HIF-1α protein = assay: Western blot of hypoxia induced HIF-1α in Tsc2−/− MEFs; format: cell-based, mouse; conditions: CBD at 10 μM
Method: as §2
Cells were washed in Phosphate Buffered Saline (PBS) and then lysed directly in sample buffer (62.5 mM Tris HCL, 50 mM DTT, 2% SDS (w/v), 10% Glycerol (w/v), 0.1% Bromophenol blue (w/v) pH 7.6) and sonicated for 5×20 s cycles on full power (30 amplitude microns). Samples were boiled at 95° C. for 10 min. Lysates were resolved by SDS-PAGE and proteins were transferred to polyvinylidene difluoride membranes.
Membranes were blocked in 5% (w/v) dry milk powder dissolved in Tris-buffered saline containing 0.1% (v/v) Tween, then probed with primary antibody and horse radish peroxidase-conjugated secondary antibody. Proteins were visualized using Enhanced Chemiluminescent solution and Hyperfilm. Antibodies towards ribosomal protein S6 (rpS6), phospho-rpS6 (Ser235/236) were purchased from Cell Signaling Technology. Anti-HIF-1α was obtained from BD transduction laboratories. Statistical Analysis […]

pS6 positive cells = assay: Size of pS6 positive cells in zebrafish model of TSC; format: in vivo
Description: A zebrafish model of TSC with a tsc2 gene deletion was used. This model has been previously published and validated (Kim et al. 2011). By mating the gene deletion animals with wild-type tsc2+/+ animals, heterozygote (tsc2+/−) zebrafish were also obtained and tested in this example.
For both pS6 and TUNEL staining, non-consecutive sections were imaged using a Zeiss AxioImager microscope. Exposure time was kept constant during image acquisition and determined by the observation of a slide where primary antibody or enzyme solution was omitted. Pictures were taken with a 20× objective, using the AxioVision software, and coloured using Fiji ImageJ. All counting and measuring of cells was done in the original black and white pictures.
Statistical analysis was performed in SPSS (IBM SPSS Statistics 22), except for the chi-square test, which was done using GraphPad Prism 5. Normality and sphericity were tested using the Kolmogorov-Smirnov and Mauchly's tests, respectively. Repeated measures two-way ANOVA tests were used to analyse the locomotor assay data and cell number, while a three-way ANOVA test was used to analyse cell size. Touch response (TR) between genotypes and treatments was analysed by chi-square test. Tests were followed by Tukey or Bonferroni post-hoc tests.

[5] = treatment resistant paediatric epilepsy; cited from earlier work
[6] = TSC patients having focal onset seizures; cited from earlier work

C=C(C)[C@@H]1CCC(C)=C[C@H]1c1c(O)cc(CCCCC)cc1O [CBD, Cannabidiol]
reduction of wound closure (AML 621-101 cells [1]; 20 μM CBD): 60% | reduction of wound closure (AML 621-101 cells [1]; 5, 10 and 20 μM CBD, FIG. 1 (B)): effective at reducing wound closure | cell migration (Tsc2−/− MEFs [2]): reduce cell migration to control level | cell invasion (Tsc2−/− MEFs [3]; 5 μM CBD): restoring invasion to the level of the Tsc2+/+ control cells | cell invasion (Tsc2−/− MEFs [3]; 10 μM CBD): more robust effect | cell invasion (AML 621-101 cells [4]): significantly block | hypoxia induced expression of HIF-1α protein (HIF-1α protein): sufficient to block hypoxia induced expression of HIF-1α protein | change in size of pS6 positive cells (pS6 positive cells; main effect of treatment, compared to Danieau's or DMSO groups, FIG. 5B): −20.1% | effect on size of pS6 positive cells (pS6 positive cells; tsc2+/+ zebrafish): did not affect cell size | change in size of pS6 positive cells (pS6 positive cells; tsc2+/− zebrafish, compared to Danieau's, FIG. 5C): −27.6% | change in size of pS6 positive cells (pS6 positive cells; tsc2+/− zebrafish, compared to the DMSO group, FIG. 5C): −18.1% | change in size of pS6 positive cells (pS6 positive cells; tsc2−/− zebrafish, compared to Danieau's, FIG. 5C): −23% | change in size of pS6 positive cells (pS6 positive cells; tsc2−/− zebrafish, compared to the DMSO group, FIG. 5C): −20.8% | seizure frequency [5]: significant reductions in seizure frequency | treatment of refractory epilepsy [6]: beneficial
